# Assay results: patent US20180327364A1, “MTOR INHIBITORS AND METHODS OF USE THEREOF” (Brandeis University, priority 2015, published 2018)
# Legend:
# [1] = test system: mTORC2 catalyzed phosphorylation of Akt; test: Akt phosphorylation immunoblot (mTORC2) in HEK-293T cells; type: cell-based; details: HEK-293T cells treated with Cbz-B3A
# Procedure: (§1) Quantification of western blots was performed with ImageJ. Cells were lysed in RIPA buffer (1% NP-40, 1% NaDeoxycholate, 0.1% SDS, 10 mM TrisCl, 10 mM β-glycerophosphate, 10 mM Na pyrophosphate, 50 mM NaF, 200 μM Na vanadate, 1 mM EDTA, 500 μM EGTA, 1% benzonase, and supplemented with complete (Roche Diagnostics) protease inhibitors).
# MOLT-4 = test: NCI-60 DTP Human Tumor Cell Line Screen, MOLT-4; type: cell-based; details: 10 μM, 48 h
# Procedure: (§2) Screen was conducted as previously described, performed at Developmental Therapeutics Program NCI/NIH.
# [2] = test system: K562, BaF3/p210, and HEK-293T cells; test: LDH release cytotoxicity assay; type: cell-based; details: 4 and 48 h
# Procedure: To determine cellular growth, CellTiter-Glo luminescent cell viability assay (Promega) was used per the manufacturer's instruction. To determine cytotoxicity, LDH release was measured with the LDH Cytotoxicity Assay Kit (Pierce) according to the manufacture's protocol. For 4 h assays, 96 well plates were seeded at 75,000 cells/mL for BaF3/p210 cells or K562 cells. For HEK-293T cells, 10,000 cells/well were plated 24 h before treatment. Cells were treated for 4 h at 37° C. and […] was removed from every well and used in the LDH Cytotoxicity assay per the manufacturer's protocol. For 48 h assays, 7,500 cells/mL of BaF3/p210 or K562 cells were incubated with compound at 37° C. for 48 h (200 μL/well). For HEK-293T cells, 1,000 cells/well were plated 24 h prior to compound treatment. After treatment, 50 μL was removed from each well for the LDH assay for all cell lines and 100 μL of mixed cells were removed and used with the CellTiter-Glo kit for K562 and BaF3/p210 cells. For HEK-293T cells, wells were treated directed with the CellTiter-Glo kit. Cytotoxicity or viability was measured by luminosity and absorbance on a microplate reader.
# ubiquilin 4 = target: T1, ubiquilin 4 (Homo sapiens, UniProt Q9NRR5); test: Cellular thermal shift assay (CETSA) in HEK-293T lysate; type: binding; details: 100 μM Cbz-B3A, lysate incubated 30 min
# T1 construct: endogenous in cells; host or cells: HEK-293T lysate
# Procedure: CETSA was performed as previously described. Briefly, HEK-293T cells were lysed in DPBS with Roche complete protease inhibitor by 3 quick freeze thaws, centrifuged at 20,000 g for 20 min at 4° C., and the supernatant was adjusted to 4 mg/mL. Lysate was incubated with compound for 30 min and heated to different temperatures in a thermal cycler for 3 min, then cooled to room temperature for 3 min. All samples were then centrifuged at 20,000 g for 20 min at 4° C. and a western blot was run on the supernatant.
# [3] = test system: 4EBP1 phosphorylation by mTORC1; test: 4EBP1 phosphorylation immunoblot in HEK-293T cells; type: cell-based; details: 4 h
# Procedure: as §1
# SR = test: NCI-60 DTP Human Tumor Cell Line Screen, SR; type: cell-based; details: 10 μM, 48 h
# Procedure: as §2
# NCI-60 cell lines = test: NCI-60 DTP Human Tumor Cell Line Screen, all cell lines; type: cell-based; details: 10 μM, 48 h
# Procedure: as §2
# mTOR = mTOR level and mTOR phosphorylation immunoblot in HEK-293T cells; type: cell-based; details: 10 μM, 4 h
# Procedure: as §1
# eIF2α = eIF2α phosphorylation immunoblot in HEK-293T cells; type: cell-based; details: 1 h; tunicamycin 5 μg/mL, thapsigargin 500 nM; compared with vehicle
# Procedure: as §1
# [4] = test system: protein translation in HEK-293T cells; test: 35S-methionine/cysteine incorporation translation assay; type: cell-based; details: Homo sapiens, HEK-293T, 4 h treatment then 1 h labeling
# Procedure: 80,000 cells/well of HEK-293T cells were plated into 24 well plates 24 h before the assay. Cells were treated with indicated concentration of compound for 4 h. After 4 h, the media was removed and replaced with DMEM without methionine and cysteine (Lifetechnologies) supplemented with 0.2 mCi/mL EXPRESS [^35S] protein labeling mix (PerkinElmer), 10% dialyzed FBS (Pierce), 1× glutaMax (Gibco), 100 U/mL penicillin 100 μg/mL streptomycin (Gibco), 1 mM sodium pyruvate (Lifetechnologies), and the indicated concentration of compound. After 1 h, this media was removed, cells were washed with ice cold PBS, and lysed with low deoxycholate RIPA buffer (10 mM Tris-Cl, 1% NP-40, 0.5% Na Deoxycholate, 0.1% SDS, 140 mM NaCl, 1 mM EDTA, 500 μM EGTA, 1× Roche Complete protease inhibitors, 1:100 Benzonase, and at pH 8.0). Lysate was centrifuged at maximum speed for 20 m at 4° C. The concentration was measured by Bradford assay. 10 μg of lysate was added to […] ice cold 1 mg/mL BSA with 0.02% Na Azide. 1 mL of ice cold 10% TCA was added, the solutions were mixed and incubated on ice for 0.5 h. These mixtures were vacuum filtered onto GF/C Whatman glass microfiber filters. The filters were washed with 2×5 mL of 10% TCA, then 2×3 mL ethanol. The filters were then dried for a 0.5 h. The filters were placed into scintillation vials with 5 mL of scintillation fluid and read on a scintillation counter.
# TSC2 = TSC2 level immunoblot in HEK-293T cells; type: cell-based; details: 10 μM, 4 h; p=0.19 vs DMSO
# Procedure: as §1
# firefly luciferase = test: Luciferase assay in stably transduced luciferase HEK-293T cells; type: cell-based; details: 100 μM Cbz-B3A, 4 h, anti-HA immunoblot
# T1 sequence (Q9NRR5 whole entry): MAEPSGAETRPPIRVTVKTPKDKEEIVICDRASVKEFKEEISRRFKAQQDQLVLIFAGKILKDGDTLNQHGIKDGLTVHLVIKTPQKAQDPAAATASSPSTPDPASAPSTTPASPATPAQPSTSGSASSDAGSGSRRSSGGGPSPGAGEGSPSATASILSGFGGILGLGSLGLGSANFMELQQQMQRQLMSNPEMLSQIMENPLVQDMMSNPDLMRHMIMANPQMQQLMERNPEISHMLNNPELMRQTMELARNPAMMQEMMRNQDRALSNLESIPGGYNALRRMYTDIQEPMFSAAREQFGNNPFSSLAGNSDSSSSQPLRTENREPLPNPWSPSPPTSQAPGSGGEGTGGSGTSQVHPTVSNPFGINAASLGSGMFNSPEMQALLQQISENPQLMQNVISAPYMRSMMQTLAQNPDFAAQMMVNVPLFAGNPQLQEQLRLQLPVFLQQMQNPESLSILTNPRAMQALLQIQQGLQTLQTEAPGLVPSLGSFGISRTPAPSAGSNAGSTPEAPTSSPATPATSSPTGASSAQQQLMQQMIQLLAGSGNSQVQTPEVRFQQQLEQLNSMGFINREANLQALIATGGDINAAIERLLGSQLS
smiles,measurement,setting,value
CC(C)(C)OC(=O)/N=C(\NCCC[C@H](NC(=O)OC(C)(C)C)C(=O)NCCCCCCNC(=O)OCc1ccccc1)NC(=O)OC(C)(C)C [Cbz-B3A],Akt phosphorylation at Ser473,[1],No decrease in Akt phosphorylation
same,"decrease in proliferation, MOLT-4",MOLT-4,80%
same,cytotoxicity by release of lactate dehydrogenase,[2],not cytotoxic
same,melting temperature shift of ubiquilin 4,ubiquilin 4,clear shift to a lower melting temperature
same,4EBP1 phosphorylation (hyper- vs hypo-phosphorylated band),"[3]; Cbz-B3A 10 μM, Cbz-acetyl 10 μM, rapamycin 20 nM",clear shift from hyper-phosphorylation to hypo-phosphorylation
same,EC50,"[3]; Homo sapiens, HEK-293T, read-out: EC50 of inhibition of 4EBP1 phosphorylation",~2 µM
same,"decrease in proliferation, SR",SR,83%
same,"average decrease in proliferation, all cell lines",NCI-60 cell lines,29%
same,Ser2481 phosphorylation of mTOR,mTOR,no change in Ser2481 phosphorylation
same,levels of mTOR,mTOR,did not change
same,phosphorylation of mTOR at Ser2448,mTOR,only a small effect
same,eIF2α phosphorylation,eIF2α,no increase in eIF2α phosphorylation
same,EC50,[4]; read-out: EC50 of inhibition of 35S-methionine/cysteine incorporation,~3 µM
same,inhibition at 10 µM,"[4]; saturating concentration (Cbz-B3A 10 μM), read-out: maximal inhibition of translation (35S-methionine/cysteine incorporation)",68%
same,amount of TSC2,TSC2,appeared to increase the amount of TSC2
same,decrease in amount of luciferase protein,firefly luciferase,approximately 40%
